Data as given in patent publication US7442696B2, “Mineralocorticoid receptor modulator compounds, processes for their preparation, and their uses” (Ligand Pharmaceuticals, Inc., priority 2004, dated 2008).

Molecular target: T1, human mineralocorticoid receptor protein (MR) (Homo sapiens, UniProt P08235)
T1 construct: made in house; host or cells: Spodoptera frugiperda Sf21 insect cells (baculovirus)
T1 sequence (P08235 1-984): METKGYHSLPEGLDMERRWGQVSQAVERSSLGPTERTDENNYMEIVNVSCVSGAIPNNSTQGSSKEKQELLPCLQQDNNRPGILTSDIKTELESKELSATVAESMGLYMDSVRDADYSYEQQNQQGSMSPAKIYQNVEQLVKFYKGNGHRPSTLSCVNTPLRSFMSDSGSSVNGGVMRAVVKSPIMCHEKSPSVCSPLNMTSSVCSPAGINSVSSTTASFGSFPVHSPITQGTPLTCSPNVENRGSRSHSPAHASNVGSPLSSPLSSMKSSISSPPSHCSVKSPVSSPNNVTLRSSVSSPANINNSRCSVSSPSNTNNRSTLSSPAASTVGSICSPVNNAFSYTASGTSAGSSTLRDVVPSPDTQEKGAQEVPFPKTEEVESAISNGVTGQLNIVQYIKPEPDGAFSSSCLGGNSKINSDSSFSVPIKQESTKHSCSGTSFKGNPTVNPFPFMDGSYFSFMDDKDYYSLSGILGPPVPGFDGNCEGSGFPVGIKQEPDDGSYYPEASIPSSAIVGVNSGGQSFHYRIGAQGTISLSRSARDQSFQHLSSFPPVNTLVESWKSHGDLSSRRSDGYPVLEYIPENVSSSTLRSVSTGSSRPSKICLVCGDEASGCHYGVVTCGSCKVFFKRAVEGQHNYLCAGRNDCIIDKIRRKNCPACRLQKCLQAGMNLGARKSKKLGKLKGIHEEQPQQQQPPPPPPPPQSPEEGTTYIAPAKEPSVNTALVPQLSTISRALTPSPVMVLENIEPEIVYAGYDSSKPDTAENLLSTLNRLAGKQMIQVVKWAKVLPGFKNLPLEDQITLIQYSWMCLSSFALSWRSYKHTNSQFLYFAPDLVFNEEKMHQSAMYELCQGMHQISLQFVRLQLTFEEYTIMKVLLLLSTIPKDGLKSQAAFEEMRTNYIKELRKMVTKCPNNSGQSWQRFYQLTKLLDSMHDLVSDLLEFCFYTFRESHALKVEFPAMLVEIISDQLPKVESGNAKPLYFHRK
Test: Mineralocorticoid receptor binding assay ([3H]aldosterone competition, MR lysate)
Conditions: baculovirus-expressed MR lysate from Sf21 cells; 2-4 nM [3H]aldosterone; 16 hours at 4° C.; Cheng-Prusoff from IC50
Description: A baculovirus expression plasmid comprising cDNA encoding the human mineralocorticoid receptor protein (MR) was prepared using standard techniques. See e.g. E. A. Allegretto et. al. 268 J. Biol. Chem., 26625 (1993); G. Srinivasan and B. Thompson, 4 Mol. Endo., 209 (1990); and D. R. O'Reilly et. al., in “Baculovirus Expression Vectors”, D. R. O'Reilly et. al., eds., W. H. Freeman, New York, N.Y., pp. 139-179 (1992). That expression plasmid was co-transfected together with wild type Autographa californica multiple nuclear polyhedrosis virus DNA into Spodoptera frugiperda-21 (Sf-21) cells to generate recombinant virus comprising MR cDNA. See e.g. O'Reilly, D. R., Miller, L. K., Luckow, V. A., Regulation of expression of a baculovirus ecdysteroid UDP glucosyltransferase gene. “Baculovirus Expression Vectors.” WH Freeman, NY, 139-179 (1992). That recombinant virus comprising MR cDNA was collected.
A suspension culture of uninfected Sf21 cells was grown to a density of 1.2×10^6 cells/ml and then infected with the recombinant virus comprising MR cDNA at a multiplicity of infection of 2. Those infected Sf21 cells were incubated for 48 hours and then collected by centrifugation at 1000×g for 10 minutes at 4° C. The resulting cell pellets were resuspended in lysis buffer (50 mM Potassium Phosphate buffer, pH 7.0, 10 mM Monothioglycerol, 5 mM DTT, 20 mM Sodium Molybdate, 1 mM PMSF, 1 μg/mL aprotinin, and 10 μg/mL leupeptin) and incubated for 15 minutes on ice. Those resuspended cell pellets were homogenized using a Dounce homogenizer and a B pestle. A volume of 2 M KCl was added to the homogenized cell pellets to a final concentration of 0.4 M. The resulting MR lysates were centrifuged at 100,000×g for 60 min at 4° C. and stored for use in binding assays.
Binding assay samples were prepared in separate mini-tubes in a 96-well format at 4° C. Each binding assay sample was prepared in a volume of 250 μl of MR-Assay Buffer (10% glycerol, 10 mM sodium phosphate, 10 mM potassium fluoride, 20 mM sodium molybdate, 0.25 mM CHAPS, 2 mM DTT, (adjusted to pH 7.35)) containing 5-10 μg of MR lysate; 2-4 nM of [^3H]aldosterone; unlabeled aldosterone; and a test compound. Each test compound was assayed at several different concentrations, ranging from 0 to 10^−5 M and each was tested in the presence and in the absence of several different concentrations of unlabeled aldosterone. Each concentration of each test compound was assayed in triplicate. The assay samples were incubated for 16 hours at 4° C.
After incubation, 200 μl of 6.25% hydroxylapatite in assay buffer was added to each assay sample to precipitate the protein. The assay samples were then centrifuged and the supernatants were discarded. The resulting pellets were washed twice with assay buffer lacking DTT. Radioactivity in counts per minute (CPM) of each washed pellet was determined by liquid scintillation counter (MicroBeta™, Wallach).
Specific binding for a particular sample was calculated using the equation: (Sample CPM)−(Average Non-specific CPM) Average Non-specific CPM was defined as the amount of radioactivity from samples comprising an excess (i.e. 1000 nM) of unlabeled aldosterone. IC50 values (the concentration of test compound required to decrease specific binding by 50%) were determined using the log-logit (Hill) method. Ki values were determined using the Cheng-Prusoff equation using a previously determined Kd value for aldosterone: Ki=IC50/(1+[L]/Kd) [L]=concentration of labeled aldosterone Kd=dissociation constant of labeled aldosterone Ki values for certain mineralocorticoid receptor binding compounds are shown in Table 1.

Row | SMILES | Ki [nM]
1 | CC1(C)OC(=O)Nc2ccc(-c3cccc(C#N)c3)c(Cl)c21 [Compound 101, 5-Chloro-6-(3-cyanophenyl)-1,4-dihydro-4,4-dimethyl-2H-3,1-benzoxazin-2-one] | 98
2 | CC1(C)OC(=S)Nc2ccc(-c3cccc(C(F)(F)F)c3)c(Cl)c21 [Compound 104, 5-Chloro-1,4-dihydro-4,4-dimethyl-6-[3-(trifluoromethyl)phenyl]-2H-3,1-benzoxazin-2-thione] | 52
3 | CC1(C)OC(=O)Nc2ccc(-c3cccc(C(F)(F)F)c3)c(Cl)c21 [Compound 102, 5-Chloro-1,4-dihydro-4,4-dimethyl-6-[3-(trifluoromethyl)phenyl]-2H-3,1-benzoxazin-2-one] | 440
4 | CC(=O)c1cccc(-c2ccc3c(c2Cl)C(C)(C)OC(=O)N3)c1 [Compound 103, 6-(3-Acetylphenyl)-5-chloro-1,4-dihydro-4,4-dimethyl-2H-3,1-benzoxazin-2-one] | 375
5 | CC1OC(=S)Nc2ccc(-c3cccc(C(F)(F)F)c3)c(Cl)c21 (racemic) [Compound 111, (±)-5-Chloro-1,4-dihydro-4-methyl-6-[3-(trifluoromethyl)phenyl]-2H-3,1-benzoxazin-2-thione] | 45
6 | O=C1Nc2ccc(-c3cccc(C(F)(F)F)c3)c(Cl)c2C(c2ccc(F)cc2)O1 (racemic) [Compound 118, (±)-5-Chloro-4-(4-fluorophenyl)-1,4-dihydro-6-[3-(trifluoromethyl)phenyl]-2H-3,1-benzoxazin-2-one] | 150
